Literature values as cited in article PMC4906314, “Direct interaction of beta-amyloid with Na,K-ATPase as a putative regulator of the enzyme function” (Scientific Reports, 2016).

Molecular target: Na,K-ATPase
Conditions: at the same conditions; read-out: Kd for complexes of Na,K-ATPase with CTS

C[C@]12CC[C@H](O)C[C@@]1(O)CC[C@@H]1[C@@H]2CC[C@]2(C)[C@@H](c3ccc(=O)oc3)C[C@H]3O[C@]132 [marinobufagenin]
Kd: 1500 nM
